Measured values reported in patent publication US20140221286A1, “SODIUM CHANNEL BLOCKERS REDUCE GLUCAGON SECRETION” (Gilead Sciences, Inc., priority 2011, published 2014).

Assays:
rat pancreatic islets [1] = test: Veratridine-induced glucagon secretion in rat pancreatic islets; assay type: cell-based
rat pancreatic islets [2] = test: Glucagon secretion in rat pancreatic islets under low glucose (3 mM), ELISA; assay type: cell-based
α-TC1 clone 9 cells = assay type: cell-based; details: for Glucagon Secretion % Inhibition: veratridine-induced (30 μM for 1 hour), at a given concentration (not given)
Protocol: (§1) Voltage-dependent block (VDB) of […] was determined by whole-cell voltage-clamp recordings of sodium current using a QPatch 16× automated electrophysiological system in HEK 293 cells overexpressing Nav 1.3 and Nav 1.7 sodium channels, respectively. VDB of peak current was measured using an 8 s conditioning prepulse (to -55 mV for NaV1.3 and to −60 mV for […]) followed by a test pulse (0 mV, 20 ms). Currents are normalized to the peak current recorded in the absence of drug and expressed as percent inhibition. […] Glucagon secretion in the cells was induced by the treatment with veratridine at 30 μM for 1 hour in Krebs-Ringer buffer containing 0.1% BSA. Percent inhibition of glucagon secretion by Na channel blockers was calculated from the reduction of veratridine-induced glucagon secretion in the absence of drug.
Cells were seeded at 0.4×10^5/well in 96-well plates and allowed to recover for 1 day. The media was then changed to serum-free DMEM and incubated overnight. Cells were then treated with sodium-channel blockers in the presence of veratridine (15 μM) in Krebs-Ringer buffer containing 0.1% BSA and 3 mM glucose for 1 h. Supernatants were collected and stored at −80° C. until analysis. Glucagon levels were measured by an ELISA kit.

human pancreatic islets = test: Veratridine-induced glucagon secretion in human pancreatic islets; assay type: cell-based; details: veratridine 30 μM
hNaV1.7 = hNaV1.7 (Homo sapiens, UniProt Q15858); test: Voltage-dependent block (VDB) of hNaV1.7, QPatch whole-cell voltage-clamp in HEK-293 cells; assay type: cell-based; details: 8 s prepulse to −60 mV; at a given concentration (not given)
Protocol: as §1
The cells were continuously maintained in a humidified, 5% CO2 atmosphere at 37° C. in MEM growth medium supplemented with 10% FBS, 2 mM L-glutamine, 100 U/mL penicillin, 100 μg/mL streptomycin, 0.6 mg/mL G418 and 2 μg/mL blastocydin.
(§2) Whole-cell voltage-clamp recordings were used to measure the activity of test compounds against hNaV1.3 and hNaV1.7. Sodium currents were recorded at room temperature using a QPatch 16× automated electrophysiological system (Sophion Bioscience, Copenhagen, Denmark). Cells were washed with PBS and then incubated with Detachin for 2 minutes at room temperature. Cells were then resuspended in growth media, pelleted by centrifugation and resuspended in CHO-S-SFM II serum free media supplemented with 100 U/mL penicillin, 100 μg/mL streptomycin and 10 mM HEPES. The cells were allowed to recover for 30 min at room temperature with constant stirring and then loaded into the QPatch cell holder.
(§3) The cells were loaded into primed single hole (2 MΩ) large QPlates and the whole-cell configuration was established using the default protocol. Cells were allowed to stabilize for 10 min after establishment of the whole-cell configuration before current was measured. […] All currents are low-pass Bessel filtered at 5 kHz and digitized at 50 kHz.
(§4) Specific voltage-clamp protocols assessing voltage-dependent block (VDB, also termed state-dependent block) are used. VDB of peak current was measured following an 8 s conditioning prepulse (to -55 mV for NaV1.3 and to −60 mV for NaV1.7) followed by a test pulse to 0 mV (20 ms). An interpulse (−120 mV, 10 ms) was used to recover non-drug bound channels from fast inactivation. The prepulse potential was determined by the steady-state inactivation curves for NaV1.3 and NaV1.7. […] Multiple applications of drug were used to ensure complete solution exchange and the cells were allowed to stabilize in the drug containing solution for two minutes. Currents were normalized to the peak current recorded in the absence of drug and expressed as percent inhibition.

hNaV1.3 = molecular target: T1, hNaV1.3 (Homo sapiens, UniProt Q9NY46); test: Voltage-dependent block (VDB) of hNaV1.3, QPatch whole-cell voltage-clamp in HEK-293 cells; assay type: cell-based; details: 8 s prepulse to -55 mV; at a given concentration (not given)
T1 construct: (Vanderbilt University, Nashville, Tenn.)
Protocol: as §1
(Vanderbilt University, Nashville, Tenn.). The cells were continuously maintained in a humidified, 5% CO2 atmosphere at 37° C. in DMEM high glucose growth medium supplemented with 10% FBS, 2 mM L-glutamine, 100 U/mL penicillin, 100 μg/mL streptomycin, 1 mg/mL G418 and 3 μg/mL puromycin.
as §2, §3, §4

ZDF diabetic rats = test: ZDF diabetic rats, animal model of type 2 diabetes; assay type: in vivo, rat
Protocol: All sections from fluorescent staining were viewed under fluorescent microscope and the stained areas were digitally photographed at a magnification of 20×. The images taken at different magnification were normalized using the standard ruler grade (S1 Finder Graticule, 68040, Electron Microscopy Science, Hatfield, Pa.). Analyses of islet areas and entire section areas were performed using ImageJ software (NIH, MD). Three sections from each of 6 animals per treatment group were analyzed. Data are presented as mean±SEM. *, p<0.05; **, p<0.01; ***, p<0.001 by One-way ANOVA.
Male ZDF Leprfa/Crl rats were received at 5 weeks of age from Charles River Laboratories Inc., (Wilmington, Mass.) and were acclimated until study initiation at 6 weeks of age. Drugs were given to the animals in Purina 5008 for 10 weeks at doses approximately 170 mg/kg/d of ranolazine, 0.6 mg/kg/d of compound A and 30 mg/kg/d of sitagliptin as positive control. Fasting (12-14 h fast) and non-fasting blood samples were obtained by tail-nick and blood glucose was measured using a Freestyle Lite glucose meter (Abbott Laboratories Inc., Abbott Park, Ill.). HbA1c levels were monitored every other week. Twenty four hour water consumption as surrogate marker for diabetes for each rat was measured at least once per week.

T1 sequence (Q9NY46 1-1951 isoform Q9NY46-4): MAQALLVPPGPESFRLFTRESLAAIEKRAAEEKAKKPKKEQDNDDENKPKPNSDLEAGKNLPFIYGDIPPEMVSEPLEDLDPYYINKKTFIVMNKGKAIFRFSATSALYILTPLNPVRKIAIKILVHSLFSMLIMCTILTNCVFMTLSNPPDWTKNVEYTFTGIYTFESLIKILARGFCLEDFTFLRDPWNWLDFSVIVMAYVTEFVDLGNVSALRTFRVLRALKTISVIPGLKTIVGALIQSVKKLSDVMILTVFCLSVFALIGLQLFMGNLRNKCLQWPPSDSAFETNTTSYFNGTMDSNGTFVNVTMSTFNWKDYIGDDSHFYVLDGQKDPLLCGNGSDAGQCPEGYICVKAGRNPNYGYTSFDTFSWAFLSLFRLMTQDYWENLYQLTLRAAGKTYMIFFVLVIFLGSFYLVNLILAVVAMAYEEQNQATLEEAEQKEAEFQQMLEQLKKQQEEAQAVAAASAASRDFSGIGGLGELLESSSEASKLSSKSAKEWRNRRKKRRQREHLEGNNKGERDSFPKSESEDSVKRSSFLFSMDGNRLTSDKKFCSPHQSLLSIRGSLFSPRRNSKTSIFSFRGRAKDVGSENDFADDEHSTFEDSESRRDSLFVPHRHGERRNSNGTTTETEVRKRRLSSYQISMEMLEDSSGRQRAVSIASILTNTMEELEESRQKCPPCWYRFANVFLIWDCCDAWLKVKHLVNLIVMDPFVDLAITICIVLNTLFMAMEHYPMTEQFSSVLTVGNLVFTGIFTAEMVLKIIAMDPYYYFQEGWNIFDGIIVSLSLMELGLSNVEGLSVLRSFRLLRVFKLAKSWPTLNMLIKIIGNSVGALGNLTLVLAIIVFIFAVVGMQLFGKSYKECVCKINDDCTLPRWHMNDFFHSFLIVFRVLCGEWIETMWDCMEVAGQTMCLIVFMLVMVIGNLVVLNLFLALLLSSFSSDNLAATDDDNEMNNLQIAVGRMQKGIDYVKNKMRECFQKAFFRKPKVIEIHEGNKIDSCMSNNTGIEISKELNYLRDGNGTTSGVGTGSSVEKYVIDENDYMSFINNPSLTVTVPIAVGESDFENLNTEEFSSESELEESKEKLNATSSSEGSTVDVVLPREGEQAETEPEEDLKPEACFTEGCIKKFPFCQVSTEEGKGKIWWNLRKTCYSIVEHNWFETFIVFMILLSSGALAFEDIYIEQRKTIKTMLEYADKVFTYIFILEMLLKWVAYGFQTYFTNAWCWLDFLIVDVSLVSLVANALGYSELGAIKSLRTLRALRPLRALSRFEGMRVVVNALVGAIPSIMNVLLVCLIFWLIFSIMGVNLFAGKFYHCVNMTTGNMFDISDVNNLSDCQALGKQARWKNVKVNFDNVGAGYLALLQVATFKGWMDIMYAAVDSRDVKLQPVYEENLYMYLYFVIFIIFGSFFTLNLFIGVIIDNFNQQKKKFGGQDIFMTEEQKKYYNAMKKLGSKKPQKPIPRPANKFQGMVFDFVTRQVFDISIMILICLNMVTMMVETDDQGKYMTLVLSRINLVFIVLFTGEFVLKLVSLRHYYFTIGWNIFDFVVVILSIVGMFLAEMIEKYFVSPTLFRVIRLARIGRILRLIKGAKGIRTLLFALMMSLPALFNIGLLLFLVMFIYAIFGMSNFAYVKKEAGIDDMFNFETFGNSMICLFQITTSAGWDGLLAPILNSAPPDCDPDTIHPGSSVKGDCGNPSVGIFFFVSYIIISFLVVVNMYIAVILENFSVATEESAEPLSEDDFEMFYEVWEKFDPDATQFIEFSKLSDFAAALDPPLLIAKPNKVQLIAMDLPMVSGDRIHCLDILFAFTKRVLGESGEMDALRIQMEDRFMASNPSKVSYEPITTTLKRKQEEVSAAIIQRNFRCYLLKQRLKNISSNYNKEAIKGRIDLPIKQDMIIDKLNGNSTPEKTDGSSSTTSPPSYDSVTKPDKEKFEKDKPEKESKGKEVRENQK
T1 sequence (Q07699 19-218 partner): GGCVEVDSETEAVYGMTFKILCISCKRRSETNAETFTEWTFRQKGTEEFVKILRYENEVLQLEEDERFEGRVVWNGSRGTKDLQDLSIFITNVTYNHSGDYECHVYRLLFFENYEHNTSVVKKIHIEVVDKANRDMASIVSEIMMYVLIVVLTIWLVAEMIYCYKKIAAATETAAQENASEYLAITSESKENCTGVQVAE
T1 sequence (O60939 30-215 partner): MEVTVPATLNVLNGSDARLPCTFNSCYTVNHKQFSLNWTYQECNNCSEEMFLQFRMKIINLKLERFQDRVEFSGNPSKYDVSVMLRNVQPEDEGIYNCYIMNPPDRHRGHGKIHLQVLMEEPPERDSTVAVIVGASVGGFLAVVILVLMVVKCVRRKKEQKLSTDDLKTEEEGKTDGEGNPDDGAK
Sequence of hNaV1.7 (Q15858 1-1977 isoform Q15858-3): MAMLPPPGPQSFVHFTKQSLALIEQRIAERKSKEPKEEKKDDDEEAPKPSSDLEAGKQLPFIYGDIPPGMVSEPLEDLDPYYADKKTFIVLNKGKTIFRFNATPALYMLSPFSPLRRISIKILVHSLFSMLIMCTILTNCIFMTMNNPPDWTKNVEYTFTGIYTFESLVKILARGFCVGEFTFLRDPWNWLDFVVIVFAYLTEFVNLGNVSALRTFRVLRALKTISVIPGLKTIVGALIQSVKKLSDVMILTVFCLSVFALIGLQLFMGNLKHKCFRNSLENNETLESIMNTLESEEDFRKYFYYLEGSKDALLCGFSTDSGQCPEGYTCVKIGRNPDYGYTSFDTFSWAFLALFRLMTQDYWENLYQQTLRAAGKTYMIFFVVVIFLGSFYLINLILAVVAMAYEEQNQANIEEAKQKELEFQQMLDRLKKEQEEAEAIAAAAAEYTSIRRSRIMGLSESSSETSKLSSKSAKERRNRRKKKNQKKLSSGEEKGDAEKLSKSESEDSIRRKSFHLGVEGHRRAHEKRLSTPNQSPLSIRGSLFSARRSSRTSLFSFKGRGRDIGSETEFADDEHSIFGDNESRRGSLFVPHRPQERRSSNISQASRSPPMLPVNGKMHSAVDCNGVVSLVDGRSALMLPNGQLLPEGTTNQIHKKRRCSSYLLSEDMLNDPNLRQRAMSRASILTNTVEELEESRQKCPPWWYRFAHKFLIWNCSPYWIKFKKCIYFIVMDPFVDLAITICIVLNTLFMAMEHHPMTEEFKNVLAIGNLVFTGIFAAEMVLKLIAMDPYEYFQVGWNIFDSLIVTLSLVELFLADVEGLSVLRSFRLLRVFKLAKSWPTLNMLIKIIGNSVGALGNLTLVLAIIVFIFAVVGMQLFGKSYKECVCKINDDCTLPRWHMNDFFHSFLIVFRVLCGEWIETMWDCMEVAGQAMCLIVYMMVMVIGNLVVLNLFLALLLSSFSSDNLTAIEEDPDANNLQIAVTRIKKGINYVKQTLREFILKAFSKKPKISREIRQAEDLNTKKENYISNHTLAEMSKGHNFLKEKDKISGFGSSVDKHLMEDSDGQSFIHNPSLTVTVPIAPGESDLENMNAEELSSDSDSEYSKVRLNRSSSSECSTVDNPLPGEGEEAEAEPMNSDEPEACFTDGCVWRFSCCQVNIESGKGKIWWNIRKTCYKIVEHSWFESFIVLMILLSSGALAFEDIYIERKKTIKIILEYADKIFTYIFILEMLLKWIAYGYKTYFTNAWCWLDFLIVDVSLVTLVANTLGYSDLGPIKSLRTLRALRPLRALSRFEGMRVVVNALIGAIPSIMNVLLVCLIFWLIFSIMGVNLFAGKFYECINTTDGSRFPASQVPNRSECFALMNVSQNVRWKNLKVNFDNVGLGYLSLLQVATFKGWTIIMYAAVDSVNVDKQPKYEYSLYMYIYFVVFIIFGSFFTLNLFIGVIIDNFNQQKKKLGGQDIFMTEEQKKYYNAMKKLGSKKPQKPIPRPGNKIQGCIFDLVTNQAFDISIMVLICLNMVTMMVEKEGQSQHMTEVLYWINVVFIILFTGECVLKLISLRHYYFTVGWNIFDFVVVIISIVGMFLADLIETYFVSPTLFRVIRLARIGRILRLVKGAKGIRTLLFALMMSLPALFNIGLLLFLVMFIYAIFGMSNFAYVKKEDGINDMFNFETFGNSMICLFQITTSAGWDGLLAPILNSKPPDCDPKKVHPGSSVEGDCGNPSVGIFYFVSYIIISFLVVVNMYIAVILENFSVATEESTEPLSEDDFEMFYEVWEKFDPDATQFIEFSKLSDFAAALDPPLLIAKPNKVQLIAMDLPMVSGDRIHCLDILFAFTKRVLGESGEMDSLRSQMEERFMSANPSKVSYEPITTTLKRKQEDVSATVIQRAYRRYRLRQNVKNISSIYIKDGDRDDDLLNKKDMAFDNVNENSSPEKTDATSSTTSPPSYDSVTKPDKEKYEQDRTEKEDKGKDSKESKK
Sequence of hNaV1.7 (Q07699 19-218 partner): as the sequence (Q07699 19-218 partner) above

Compound	hNav1.7 VDB % Inhibition (hNaV1.7)	hNav1.3 VDB % Inhibition (hNaV1.3)	Glucagon Secretion % Inhibition (α-TC1 clone 9 cells)	other results
NC1=N[C@H](O)[C@H]2[C@H]3O[C@]4(O)O[C@@H]([C@@H](O)[C@@]2(N1)[C@@H]4O)[C@]3(O)CO [TTX, tetrodotoxin]				reduction of veratridine-induced glucagon secretion (in words) (rat pancreatic islets [1]): concentration-dependently reduced; maximal reduction of glucagon secretion as compared to the vehicle control (rat pancreatic islets [2]): 47±6%; reduction of veratridine-induced increase of glucagon secretion (α-TC1 clone 9 cells): 100±6%
COc1ccc(C(=O)O[C@H]2CC[C@@]3(C)[C@@H]4CC[C@H]5[C@]6(O)C[C@H](O)[C@@]7(O)[C@@H](CN8C[C@@H](C)CC[C@H]8[C@@]7(C)O)[C@]6(O)C[C@@]53O[C@]24O)cc1OC [Veratridine]				increase in glucagon secretion (rat pancreatic islets [1]; veratridine at 30 μM): more than 3 fold; increase in glucagon secretion (human pancreatic islets): ~9 fold
FC(F)(F)Oc1ccc(-c2ccc3nnc(Oc4ccccc4)n3c2)cc1 [D, 3-phenoxy-6-(4-(trifluoromethoxy)phenyl)-[1,2,4]triazolo[4,3-a]pyridine]	89.74%	49.35%	33.75%	
CS(=O)(=O)Nc1ccc(-c2ccc(Cl)c(C(F)(F)F)c2)c(Cl)c1 [G, N-(2,4′-dichloro-3′-(trifluoromethyl)biphenyl-4-yl)methanesulfonamide]	6.04%	4.01%	3.5%	
O=C(NCc1ccc(C(F)(F)F)c(Cl)c1)c1ccc(S(=O)(=O)Nc2ncc(Cl)s2)cc1 [C, N-(3-chloro-4-(trifluoromethyl)benzyl)-4-(N-(5-chlorothiazol-2-yl)sulfamoyl)benzamide]	7.81%	92.16%	41%	
COCC(F)(F)c1nnc2ccc(-c3ccc(Oc4ccc(Cl)cc4)cc3)cn12 [F, 6-(4-(4-chlorophenoxy)phenyl)-3-(1,1-difluoro-2-methoxyethyl)-[1,2,4]triazolo[4,3-a]pyridine]	14.72%	2.32%	4%	
CC(C)(C)OC(=O)N[C@H](Cc1ccccc1)C(=O)N[C@@H]1CCc2ccccc2N(CC(F)(F)F)C1 [E, tert-butyl (R)-1-oxo-3-phenyl-1-((R)-1-(2,2,2-trifluoroethyl)-2,3,4,5-tetrahydro-1H-benzo[b]azepin-3-ylamino)propan-2-ylcarbamate]	23.73%	23.18%	34.53%	
N[C@@H](CC(=O)N1CCn2c(nnc2C(F)(F)F)C1)Cc1cc(F)c(F)cc1F [sitagliptin]				insulin staining per islet (ZDF diabetic rats; 10 weeks treatment): 90.0±2.1%; islet area/pancreas area (ZDF diabetic rats; 10 weeks treatment): 0.98±0.3%; staining of glucagon per islet versus vehicle (ZDF diabetic rats; 10 weeks treatment): significantly less; water consumption (surrogate marker for diabetes) (ZDF diabetic rats; in Purina 5008 diet, during diabetes development): significantly prevented the increase; HbA1c levels versus vehicle group (ZDF diabetic rats; in Purina 5008 diet, weeks 4, 6 and 8): significantly lower; fasting plasma glucose levels versus vehicle (ZDF diabetic rats; in Purina 5008 diet, weeks 7 and 9): significantly lower
